In paper PMC12298827, “Subchronic Toxicities of Four Per- and Polyfluoroalkyl Substances (PFASs) by Oral Exposure in Sprague–Dawley Rats” (Toxics, 2025):

System: male and female Sprague–Dawley rats
Assay: 90-day subchronic oral gavage toxicity study
Format: in vivo, rat
Parameters: key to NOEL, absolute liver weight increase / LOEL, absolute liver weight increase / NOEL, relative kidney weight increase / LOEL, relative kidney weight increase / NOEL, absolute kidney weight increase / LOEL, absolute kidney weight increase / NOEL, relative liver weight increase / LOEL, relative liver weight increase: NR: no response, no statistically significant dose-dependent changes
Method: Subchronic (90-day) studies were performed in accordance with current U.S. EPA’s Toxic Substances Control Act Good Laboratory Practice (GLP) Standards, with the following two general exceptions to the GLP guidelines: Analysis of the dose formulations was conducted according to RTI-approved Standard Operating Procedures, and corn oil (the vehicle) was not characterized (certificate of analysis from the vendor is available in the appendices to the final reports). Male and female Sprague–Dawley rats (five dose levels plus a control, n = 10/sex/dose group, corn oil vehicle dose volume of 3 mL/kg; oral gavage) were used in these studies, and the rats were euthanized on SD 91. The dose levels for PFHI were 0, 12.5, 25, 50, 100, and 200 mg/kg-day. The dose levels for MHFPK were 0, 18.8, 37.5, 75, 150, and 300 mg/kg-day. The dose levels for PFNAC were 0, 0.1, 0.3, 1.0, 3.0, and 10 mg/kg-day for male rats and 0, 0.3, 1.0, 3.0, 10, and 30 mg/kg-day for female rats. For CTFPA, the dose levels were 0, 1.9, 3.8. 7.5, 15, and 30 mg/kg-day for male rats and 0, 6.3, 12.5, 25, 50, and 100 mg/kg-day for female rats. For each PFAS, three batches of dosing solution were prepared. The time between the batch preparation of the dosing solutions ranged between 29 and 39 days. Blood samples were collected from all the rats at termination for serum chemistry, hematology, coagulation, and the analysis of the parent PFAS chemical in the plasma. In vivo data collection and further detail on the endpoints examined postmortem are described below.
The rats were observed twice daily for morbidity and mortality throughout the study period. At least once prior to randomization to test groups and weekly thereafter, the rats were physically examined, and bodyweights were obtained. Feed consumption was quantified weekly starting on SD 1.
Neurotoxicity was evaluated using the functional observational battery (FOB) and measuring locomotor activity (LMA) 2–4 h post dosing on SDs 78–80 and 80–84, respectively. For both the 14- and 90-day studies, an ophthalmologic examination was conducted prior to randomization and near the end of the study, using indirect ophthalmoscopy and slit–lamp biomicroscopy (as needed) after the administration of a mydriatic solution.
Hematology, biochemistry, and coagulation endpoints were measured at the termination of the study. A Siemens Advia 2120i hematology analyzer (Siemens Healthineers, Erlangen, Germany) was used to measure (or calculate) the parameters related to the complete blood count, leukocyte differential count, and reticulocyte count. The hematology parameters are listed and described in Table 2. The prothrombin time […] and activated partial thromboplastin time (APTT) were measured using an Instrumentation Laboratory (Bedford, MA, USA) ACL Elite Pro coagulation analyzer (laser–nephelometric centrifugal method).
At necropsy, the rats were visually examined for external abnormalities and organ weights (absolute and relative to the BW and brain weight), which were recorded (paired organs weighed together). The tissues were preserved in 10% neutral buffered formalin (NBF), except for the ocular tissues, testes, and epididymides, which were preserved in modified Davidson’s fixative and later transferred to 10% NBF. Bone marrow smears were prepared from the femurs, and the slides were air-dried, fixed in methanol, stained, and stored at room temperature for possible future evaluation. The preserved tissues were embedded in paraffin, sectioned, stained with hematoxylin and eosin, and examined by a board-certified veterinary pathologist.
Statistical analysis was performed using Provantis™ Version 10 or greater (Instem LSS, Limited; Stone, Staffordshire, UK). Differences among the treatment groups compared to the control were evaluated using one-way analysis of variance (ANOVA) if the underlying assumptions of a normal distribution (Shapiro–Wilk test) and the homogeneity of the variance (Levene’s test) were satisfied. […]

## CC(=O)C(F)(F)C(F)(F)C(F)(F)F [MHFPK, Methyl heptafluoropropyl ketone]
female, 300 mg/kg-day
  MPV: 9.01 ± 0.50 fL
  PT: 15.33 s
  RBC: 8.159±0.351 M/µL
  Total BW change: 95.70 g
  Total Food Consumed: 1575 g
male
  LOEL, absolute kidney weight increase: NR
  LOEL, absolute liver weight increase: NR
  LOEL, relative kidney weight increase: NR
  LOEL, relative liver weight increase: NR
  NOEL, absolute kidney weight increase: NR
  NOEL, absolute liver weight increase: NR
  NOEL, relative kidney weight increase: NR
  NOEL, relative liver weight increase: NR
male, 18.8 mg/kg-day
  % BW Gain: 103.77%
  % Diff, % BW Gain: 6.06%
  % Diff, Total BW change: 2.29%
  % Diff, Total Food Consumed: -1.53%
  A/G: 0.85±0.03 ratio
  ABNEUT: 2.172±0.976 K/µL
  ABRETi: 179.08±30.61 10^9/L
  ABSEOS: 0.110±0.032 K/µL
  ALB: 3.17 ± 0.18 g/dL
  ALPi: 114.0±26.8 U/L
  APTT: 19.56 s
  BUN: 14.8 ± 1.4 mg/dL
  CHOL: 78.6 ± 12.0 mg/dL
  GLOB: 3.75 ± 0.18 g/dL
  GLUC: 187.8 ± 37.5 mg/dL
  HCT: 49.80±1.91%
  HGB: 15.51 ± 0.80 g/dL
  Kidney Weight: 3.11 g
  Kidney/Body Weight: 0.54%
  Kidney/Brain Weight: 144%
  Liver Weight: 14.06 g
  Liver/Body Weight: 2.41%
  Liver/Brain Weight: 649%
  MPV: 7.85 ± 0.72 fL
  PT: 15.63 s
  RBC: 8.891±0.355 M/µL
  Total BW change: 300.42 g
  Total Food Consumed: 2143 g
male, 37.5 mg/kg-day
  % BW Gain: 101.81%
  % Diff, % BW Gain: 4.06%
  % Diff, Total BW change: 3.12%
  % Diff, Total Food Consumed: -2.01%
  A/G: 0.86±0.07 ratio
  ABNEUT: 1.859±0.620 K/µL
  ABRETi: 192.99±15.30 10^9/L
  ABSEOS: 0.179±0.069 K/µL
  ALB: 3.17 ± 0.15 g/dL
  ALPi: 117.7±20.1 U/L
  APTT: 18.03 s
  BUN: 16.3 ± 1.2 mg/dL
  CHOL: 75.9 ± 12.3 mg/dL
  GLOB: 3.69 ± 0.27 g/dL
  GLUC: 217.1 ± 33.5 mg/dL
  HCT: 49.12±1.32%
  HGB: 15.11 ± 0.46 g/dL
  Kidney Weight: 2.95 g
  Kidney/Body Weight: 0.50%
  Kidney/Brain Weight: 134%
  Liver Weight: 13.83 g
  Liver/Body Weight: 2.34%
  Liver/Brain Weight: 627%
  MPV: 8.18 ± 0.65 fL
  PT: 16.31 s
  RBC: 8.732±0.259 M/µL
  Total BW change: 302.87 g
  Total Food Consumed: 2133 g
male, 75 mg/kg-day
  % BW Gain: 102.83%
  % Diff, % BW Gain: 5.10%
  % Diff, Total BW change: 5.10%
  % Diff, Total Food Consumed: 1.92%
  A/G: 0.86±0.06 ratio
  ABNEUT: 1.731±0.709 K/µL
  ABRETi: 194.58±21.06 10^9/L
  ABSEOS: 0.132±0.036 K/µL
